According to patent US9101567B2, “Suppression of cancer growth and metastasis using nordihydroguaiaretic acid derivatives with 7-hydroxystaurosporine” (The Johns Hopkins University, priority 2010, dated 2015):

Legend:
[1] = system: mitochondrial membrane potential (ΔΨm); assay: Measurement of mitochondrial membrane potential with JC-1 dye in LNCaP cells; format: cell-based, human
Method: The cells were cultured in 6 well microwell dishes and treated with the culture medium containing JC-1 dye (Cayman Chemical, Ann Arbor, Mich.) for 30 min, according to the company's protocol. After the cells had been washed carefully, they were treated with M4N for 5 hrs. The cells were observed through B29/Zeiss LSM 510 μMETA laser confocal microscope (Carl Zeiss, Germany). The cell images were captured by two different excitation lights (with 488 nm argon-ion and 568 nm argon-krypton lasers). Both JC-1 monomer and J-aggregates are detected by 488 nm excitation light while only J-aggregates are detected by 568 nm excitation light. The ratio of the intensity of the emission light excited by 568 nm light to that of the emission light excited by 488 nm light at every pixel of images (The ratio should indicate the mitochondrial potential) was calculated by the imaging software (Carl Zeiss, Germany). In the figure the ratio was shown by pseudo color. Red color indicates high ratio (high potential) while dark blue indicates low ratio (low potential). Yellow through green to light blue represents medium ratio (medium potential).
Since BNIP3 functions to activate mitochondria-related cell death machinery and induce mitochondrial membrane depolarization, the effect of M4N on the mitochondrial membrane potential (ΔΨm) was examined (FIG. 3C). […]

[2] = system: Beclin-1; assay: Western blotting of Beclin-1 in LNCaP cells; format: cell-based, human; details: normoxic or hypoxic, 6 or 18 hr, M4N 80 μM
Method: The sample volumes were adjusted by the total protein amount. Protein assay was performed by Bio-Rad Protein Assay (Bio-Rad Laboratories, Inc. Hercules, Calif.). The samples were resolved by the standard SDS-polyacrylamide gel electrophoresis and transferred to nitrocellulose membrane (Amersham Biosciences, Bjorkgatan, Sweden). The membranes were blocked with skim milk, and incubated with primary antibodies at 4° C. overnight and then with secondary antibody conjugated with horse radish peroxidase at room temperature for 2 hrs. The signals were detected by western blot chemiluminescence reagent plus (New England Nuclear Life Science Products, Boston, Mass.). BNIP3 is a member of Bcl-2 family proteins which sends pro-apoptotic signal to mitochondria and induces mitochondrial membrane potential depolarization. […] This implies that BNIP3 is involved in autophagy as well as cell death. […] Since BNIP3 is known to be activated more under hypoxic conditions (24), BNIP3 expression was examined in both normoxic and hypoxic conditions (FIGS. 3A&B). […] Previously it was shown that BNIP3 expression is augmented by hypoxia through both […] (HIF)1α-dependent and nondependent pathways (24).

[3] = system: LC3B-II; assay: Western blotting of LC3B-II (autophagy) in HepG2 cells; format: cell-based, human; details: HepG2, 15 hrs; M4N 80 μM
Method: The sample volumes were adjusted by the total protein amount. Protein assay was performed by Bio-Rad Protein Assay (Bio-Rad Laboratories, Inc. Hercules, Calif.). The samples were resolved by the standard SDS-polyacrylamide gel electrophoresis and transferred to nitrocellulose membrane (Amersham Biosciences, Bjorkgatan, Sweden). The membranes were blocked with skim milk, and incubated with primary antibodies at 4° C. overnight and then with secondary antibody conjugated with horse radish peroxidase at room temperature for 2 hrs. The signals were detected by western blot chemiluminescence reagent plus (New England Nuclear Life Science Products, Boston, Mass.). The effect of […] on autophagy was examined using the western blotting for LC3B-II in the presence of Baflomycin A1 in MCF-7 and HepG2 cells (FIG. 4D).

[4] = system: LC3B-II; assay: Western blotting of LC3B-I&II (autophagy) in LNCaP cells; format: cell-based, human; details: 18 hrs, in the presence of Baflomycin A1 (100 nM), M4N 80 μM
Method: The sample volumes were adjusted by the total protein amount. Protein assay was performed by Bio-Rad Protein Assay (Bio-Rad Laboratories, Inc. Hercules, Calif.). The samples were resolved by the standard SDS-polyacrylamide gel electrophoresis and transferred to nitrocellulose membrane (Amersham Biosciences, Bjorkgatan, Sweden). The membranes were blocked with skim milk, and incubated with primary antibodies at 4° C. overnight and then with secondary antibody conjugated with horse radish peroxidase at room temperature for 2 hrs. The signals were detected by western blot chemiluminescence reagent plus (New England Nuclear Life Science Products, Boston, Mass.).

[5] = system: BNIP3 mRNA; assay: Northern blotting of BNIP3 mRNA in LNCaP cells; format: cell-based, human; details: 6 hr exposure to hypoxic condition, M4N 80 μM
Method: RNA was extracted from the cells by a Trizol Reagent (Invitrogen, Carlsbad, Calif.). Twentyfive μg of RNA per lane was dissolved on the 1.5% agarose gel containing 20 mM NaPO4 (pH 6.8) and 6% formaldehyde. RNA was transferred to a Nytran SPC membrane (Sigma-Aldrich, St. Louis, Mo.). The probe for BNIP3 was derived from a 199 bp fragment DNA generated by RT-PCR using a SuperScript III First-Strand Synthesis System for RT-PCR (Invitrogen, Carlsbad, Calif.), 5′-primer ‘[…]’ and 3′-primer ‘[…]’. The PCR fragment was cloned into a topo vector (Invitrogen, Carlsbad, Calif.). After midi-prep, the DNA fragment was excised from the vector and dissolved on the 2% agarose gel and purified. The extracted DNA fragment was labeled by ^32P-αdATP, Klenow fragment, and random hexagonal primers. After unincorporated ^32P-αdATP was removed by a Sephadex G-50 spun column, the labeled DNA fragment was used as a probe. After hybridization, the membrane was washed and autoradiographed to a BioMax MR film (Kodak, Rochester, N.Y.).
BNIP3 is a member of Bcl-2 family proteins which sends pro-apoptotic signal to mitochondria and induces mitochondrial membrane potential depolarization. […] This implies that BNIP3 is involved in autophagy as well as cell death. […]

[6] = human patients (reference 10); cited from earlier work

COc1ccc(C[C@@H](C)[C@@H](C)Cc2ccc(OC)c(OC)c2)cc1OC [M4N, Tetra-O-methyl nordihyroguaiaretic acid]
mitochondrial membrane potential (ΔΨm) ([1]; 5 hrs, M4N 80 μM, JC-1 dye): hyperpolarized
depolarization of mitochondrial membrane potential induced by rottlerin or Ly294002 ([1]; concomitant treatment with M4N): reversed to the normal potential to some extent
Beclin-1 expression [2]: not affected
autophagy (LC3B-II in the presence of Baflomycin A1) [3]: blocks autophagy
net LC3B-II formation (net autophagic activity) [4]: almost totally suppressed
BNIP3 mRNA expression [5]: suppressed the increase of BNIP3 mRNA expression
toxicity in clinical trials [6]: fairly nontoxic
